In one assay the test system is Venturia inaequalis. As to the kind of experiment: Spore germination test. In kind it is cell-based. To be noted: VI, 48 hours. A digest of the protocol:
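Compound from acetone stock mixed into water agar at 40, 10, 2.5 and 1 ppm; plated quadrants inoculated with spore suspension in sterile water. Incubation 48 hours at 24° C, then percentage of germinated spores counted and converted to a germination rating.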

For another assay, the system named is Alternaria solani. Put plainly: Mycelial growth test. The format is cell-based. To be noted: Alternaria solani, 72 h, AS, read-out: Percent Fungus Growth Inhibition.

Turning to `O=c1c(Cl)nsnc1Oc1ccccc1Br` [Compound 34, 3-chloro-5-(2-bromophenoxy)-4H-1,2,6,-thiadiazin-4-one], the “Spore Germination Rating” value in the assay on Venturia inaequalis (1.0 ppm) was 0 (0-10). For the same compound, the “Spore Germination Rating” value with Venturia inaequalis (2.5 ppm) is reported as 0 (0-10). Moreover, the “Spore Germination Rating” value in the assay with Venturia inaequalis (10 ppm) was 0 (0-10). Further, in the assay with Venturia inaequalis (40 ppm), the “Spore Germination Rating” value is 0 (0-10). For the same compound, in the assay with Alternaria solani, the inhibition at 5 ppm was 100%, the inhibition at 10 ppm is 100%, the inhibition at 20 ppm was 100% and the inhibition at 40 ppm amounted to 100%.
For `CC(=O)Nc1cccc(Oc2nsnc(Cl)c2=O)c1` [Compound 42, 3-[(3-N--acetylamino)-phenoxy]-5-chloro-4H--1,2,6-thiadiazin-4-one], the “Spore Germination Rating” value in the assay on Venturia inaequalis (1.0 ppm) is reported as 4 (80-100); in the assay with Venturia inaequalis (2.5 ppm), 4 (80-100); in the assay on Venturia inaequalis (10 ppm), 4 (80-100); with Venturia inaequalis (40 ppm), 1 (10-40). Further, the inhibition at 5 ppm with Alternaria solani was found to be 24%. Also, the inhibition at 10 ppm in the assay on Alternaria solani amounted to 33%. Further, in the assay on Alternaria solani, the inhibition at 20 ppm was 52%. Moreover, the inhibition at 40 ppm with Alternaria solani is 90%.
Turning to `CC(=O)Nc1ccccc1Oc1nsnc(Cl)c1=O` [Compound 43, 3-[(2-acetylamino)-phenoxy]-5-chloro-4H--1,2,6-thiadiazin-4-one], the “Spore Germination Rating” value with Venturia inaequalis (1.0 ppm) was 4 (80-100). In the assay with Venturia inaequalis (2.5 ppm), the “Spore Germination Rating” value is 4 (80-100). Moreover, the “Spore Germination Rating” value in the assay with Venturia inaequalis (10 ppm) is recorded as 4 (80-100). The “Spore Germination Rating” value in the assay on Venturia inaequalis (40 ppm) is given as 2 (40-60). Besides, in the assay on Alternaria solani, the inhibition at 5 ppm was determined as 80%, the inhibition at 10 ppm came to 100%, the inhibition at 20 ppm came out at 100% and the inhibition at 40 ppm stood at 100%.
With `O=c1c(Cl)nsnc1Oc1cccc(C(F)(F)F)c1` [Compound 44, 3-chloro-5-[(3-trifluoromethyl)phenoxy]-4H--1,2,6-thiadiazin-4-one], the “Spore Germination Rating” value in the assay on Venturia inaequalis (1.0 ppm) is given as 1 (10-40); in the assay on Venturia inaequalis (2.5 ppm), 1 (10-40); with Venturia inaequalis (10 ppm), 0 (0-10); in the assay on Venturia inaequalis (40 ppm) it was 0 (0-10). For the same compound, the inhibition at 5 ppm with Alternaria solani amounted to 52%. In addition, the inhibition at 10 ppm in the assay with Alternaria solani was determined as 62%. Further, the inhibition at 20 ppm in the assay on Alternaria solani was determined as 100%. In the assay with Alternaria solani, the inhibition at 40 ppm was found to be 100%.
Turning to `O=C(O)Cc1ccccc1Oc1nsnc(Cl)c1=O` [Compound 45, 3-(2-carboxymethylphenoxy)-5-chloro-4H--1,2,6-thiadiazin-4-one], the “Spore Germination Rating” value in the assay with Venturia inaequalis (1.0 ppm) is reported as 4 (80-100); in the assay on Venturia inaequalis (2.5 ppm) it was 4 (80-100); in the assay with Venturia inaequalis (10 ppm) it was 4 (80-100); with Venturia inaequalis (40 ppm), 0 (0-10). For the same compound, in the assay with Alternaria solani, the inhibition at 5 ppm is 4%. Further, in the assay with Alternaria solani, the inhibition at 10 ppm came to 0%. In the assay on Alternaria solani, the inhibition at 20 ppm is 25%. In addition, in the assay with Alternaria solani, the inhibition at 40 ppm is 54%.
`CC(=O)c1ccc(Oc2nsnc(Cl)c2=O)cc1` [Compound 47, 3-(4-acetylphenoxy)-5-chloro-4H--1,2,6-thiadiazin-4-one]: the “Spore Germination Rating” value in the assay on Venturia inaequalis (1.0 ppm) is 1 (10-40). In addition, in the assay on Venturia inaequalis (2.5 ppm), the “Spore Germination Rating” value is recorded as 0 (0-10). Moreover, the “Spore Germination Rating” value with Venturia inaequalis (10 ppm) is recorded as 0 (0-10). Also, the “Spore Germination Rating” value with Venturia inaequalis (40 ppm) is on record as 0 (0-10). In the assay with Alternaria solani, the inhibition at 5 ppm was determined as 92%, the inhibition at 10 ppm is 92%, the inhibition at 20 ppm was found to be 92% and the inhibition at 40 ppm was 88%.
Regarding `CC(=O)c1cccc(Oc2nsnc(Cl)c2=O)c1` [Compound 48, 3-(3-acetylphenoxy)-5-chloro-4H--1,2,6-thiadiazin-4-one], in the assay on Venturia inaequalis (1.0 ppm), the “Spore Germination Rating” value is reported as 3 (60-80). The “Spore Germination Rating” value in the assay on Venturia inaequalis (2.5 ppm) is reported as 1 (10-40). In addition, the “Spore Germination Rating” value in the assay on Venturia inaequalis (10 ppm) is 0 (0-10). Further, in the assay on Venturia inaequalis (40 ppm), the “Spore Germination Rating” value is listed as 0 (0-10). In addition, in the assay on Alternaria solani, the inhibition at 5 ppm is 88%, the inhibition at 10 ppm stood at 92%, the inhibition at 20 ppm was determined as 100% and the inhibition at 40 ppm was determined as 100%.
Regarding `CC(=O)c1ccccc1Oc1nsnc(Cl)c1=O` [Compound 49, 3-(2-acetylphenoxy)-5-chloro-4H--1,2,6-thiadiazin-4-one], the “Spore Germination Rating” value was 4 (80-100) in the assay with Venturia inaequalis (1.0 ppm), 4 (80-100) with Venturia inaequalis (2.5 ppm), 1 (10-40) in the assay on Venturia inaequalis (10 ppm) and 0 (0-10) with Venturia inaequalis (40 ppm). For the same compound, the inhibition at 5 ppm in the assay with Alternaria solani stood at 100%. Moreover, the inhibition at 10 ppm in the assay on Alternaria solani turned out to be 100%. Moreover, the inhibition at 20 ppm in the assay on Alternaria solani amounted to 100%. For the same compound, in the assay on Alternaria solani, the inhibition at 40 ppm came to 100%.
For the compound `O=C(O)c1ccc(Oc2nsnc(Cl)c2=O)cc1` [Compound 50, 3-(4-carboxyphenoxy)-5-chloro-4H--1,2,6-thiadiazin-4-one], the “Spore Germination Rating” value was 4 (80-100) in the assay with Venturia inaequalis (1.0 ppm), 4 (80-100) in the assay on Venturia inaequalis (2.5 ppm), 4 (80-100) in the assay with Venturia inaequalis (10 ppm) and 0 (0-10) in the assay on Venturia inaequalis (40 ppm). In addition, in the assay on Alternaria solani, the inhibition at 5 ppm was 33%. Moreover, the inhibition at 10 ppm in the assay on Alternaria solani was determined as 21%. Also, the inhibition at 20 ppm in the assay on Alternaria solani came to 54%. In addition, the inhibition at 40 ppm in the assay on Alternaria solani came out at 63%.
`Cc1cc(Oc2nsnc(Cl)c2=O)ccc1Cl` [Compound 54, 3-chloro-5-(4-chloro-3-methylphenoxy)-4H--1,2,6-thiadiazin-4-one]: the “Spore Germination Rating” value in the assay on Venturia inaequalis (1.0 ppm) was 1 (10-40). Moreover, the “Spore Germination Rating” value in the assay with Venturia inaequalis (2.5 ppm) was 0 (0-10). In addition, the “Spore Germination Rating” value with Venturia inaequalis (10 ppm) is reported as 0 (0-10). In the assay on Venturia inaequalis (40 ppm), the “Spore Germination Rating” value is reported as 0 (0-10). Further, in the assay with Alternaria solani, the inhibition at 5 ppm turned out to be 70%, the inhibition at 10 ppm is 100%, the inhibition at 20 ppm came out at 100% and the inhibition at 40 ppm stood at 100%.
On to `Cc1cc(Cl)ccc1Oc1nsnc(Cl)c1=O` [Compound 55, 3-chloro-5-(4-chloro-2-methylphenoxy)-4H--1,2,6-thiadiazin-4-one], for which, in the assay with Venturia inaequalis (1.0 ppm), the “Spore Germination Rating” value is recorded as 1 (10-40). Moreover, the “Spore Germination Rating” value in the assay on Venturia inaequalis (2.5 ppm) is 0 (0-10). Besides, the “Spore Germination Rating” value with Venturia inaequalis (10 ppm) is listed as 0 (0-10). The “Spore Germination Rating” value in the assay on Venturia inaequalis (40 ppm) is 0 (0-10). In the assay on Alternaria solani, the inhibition at 5 ppm came to 100%, the inhibition at 10 ppm is 100%, the inhibition at 20 ppm amounted to 100% and the inhibition at 40 ppm worked out at 100%.
Consider `Cc1ccc(Oc2nsnc(Cl)c2=O)c(Br)c1` [Compound 57, 3-[(2-bromo-4-methyl)-phenoxy]-5-chloro-4H--1,2,6-thiadiazin-4-one], for which the “Spore Germination Rating” value in the assay with Venturia inaequalis (1.0 ppm) is listed as 2 (40-60). In addition, in the assay with Venturia inaequalis (2.5 ppm), the “Spore Germination Rating” value was 0 (0-10). Moreover, the “Spore Germination Rating” value in the assay with Venturia inaequalis (10 ppm) is on record as 0 (0-10). In addition, the “Spore Germination Rating” value with Venturia inaequalis (40 ppm) is 0 (0-10). Moreover, in the assay on Alternaria solani, the inhibition at 5 ppm was determined as 71%, the inhibition at 10 ppm came out at 90%, the inhibition at 20 ppm amounted to 90% and the inhibition at 40 ppm is 90%.
With `Cc1cc(Cl)c(Oc2nsnc(Cl)c2=O)cc1C` [Compound 58, 3-chloro-5-[(2-chloro-4,5-dimethyl)phenoxy]-4H--1,2,6-thiadiazin-4-one], the “Spore Germination Rating” value in the assay with Venturia inaequalis (1.0 ppm) is on record as 2 (40-60). Also, the “Spore Germination Rating” value with Venturia inaequalis (2.5 ppm) is reported as 1 (10-40). Also, the “Spore Germination Rating” value in the assay with Venturia inaequalis (10 ppm) is 0 (0-10). Further, in the assay with Venturia inaequalis (40 ppm), the “Spore Germination Rating” value is 0 (0-10). In addition, in the assay on Alternaria solani, the inhibition at 5 ppm was determined as 48%, the inhibition at 10 ppm was found to be 48%, the inhibition at 20 ppm came out at 43% and the inhibition at 40 ppm was 43%.
Turning to `Cc1cc(Oc2nsnc(Cl)c2=O)cc(C)c1Cl` [Compound 59, 3-chloro-5-[(4-chloro-3,5-dimethyl)phenoxy]-4H--1,2,6-thiadiazin-4-one], in the assay with Venturia inaequalis (1.0 ppm), the “Spore Germination Rating” value is recorded as 1 (10-40). Further, the “Spore Germination Rating” value with Venturia inaequalis (2.5 ppm) is on record as 1 (10-40). The “Spore Germination Rating” value with Venturia inaequalis (10 ppm) is 0 (0-10). Moreover, the “Spore Germination Rating” value in the assay with Venturia inaequalis (40 ppm) was 1 (10-40). In the assay on Alternaria solani, the inhibition at 5 ppm came to 48%, the inhibition at 10 ppm was determined as 52%, the inhibition at 20 ppm stood at 57% and the inhibition at 40 ppm amounted to 57%.
On to `Cc1cc(Oc2nsnc(Cl)c2=O)cc(C)c1Br` [Compound 60, 3-[(4-bromo-3,5-dimethyl)-phenoxy]-5-chloro-4H--1,2,6-thiadiazin-4-one], for which, in the assay on Venturia inaequalis (1.0 ppm), the “Spore Germination Rating” value was 2 (40-60). Moreover, the “Spore Germination Rating” value in the assay with Venturia inaequalis (2.5 ppm) is given as 1 (10-40). For the same compound, the “Spore Germination Rating” value in the assay with Venturia inaequalis (10 ppm) was 0 (0-10). The “Spore Germination Rating” value in the assay with Venturia inaequalis (40 ppm) is reported as 0 (0-10). Moreover, in the assay with Alternaria solani, the inhibition at 5 ppm came out at 33%, the inhibition at 10 ppm stood at 43%, the inhibition at 20 ppm is 52% and the inhibition at 40 ppm is 52%.

The inhibition is the share of the control response that was lost under treatment.

These data come from patent US4450269A, “Mono-5-substituted-3-chloro-4H-1,2,6-thiadiazin-4-one antifungal agents” (FMC Corporation, priority 1980, dated 1984).
